Source: ChEMBL document CHEMBL4364273, “Discovery of SHR1653, a Highly Potent and Selective OTR Antagonist with Improved Blood-Brain Barrier Penetration” (ACS Med Chem Lett, 2019)
Converted amounts (≈) assume the structure as drawn.

Experiments:
[1] = Solubility of compound in PBS at pH 7.4; type: physicochemical
[2] = Half-life in Beagle dog at 2 mg/kg, po measured for 24 hrs by LC-MS/MS analysis; type: ADME, organism-based, Canis lupus familiaris; conditions: in vivo
Homo sapiens [3] = species on record: Homo sapiens; test: Selectivity ratio of IC50 for human vasopressin V1A receptor expressed in HEK293 cells to IC50 for human OTR expressed in HEK293 cells; type: cell-based
Cytochrome P450 2C9 = Cytochrome P450 2C9 (Homo sapiens, UniProt P11712); test: Inhibition of human recombinant CYP2C9; type: ADME
[4] = AUC (0 to 24 hrs) in Sprague-Dawley rat at 150 mg/kg, po by LC-MS/MS analysis; type: ADME, organism-based; set-up: time < 24 hr, dose 150 mg/kg, route oral; conditions: in vivo
[5] = Tmax in Beagle dog at 2 mg/kg, po measured for 24 hrs by LC-MS/MS analysis; type: ADME, organism-based, Canis lupus familiaris; conditions: in vivo
[6] = Cmax in nude mouse at 4 mg/kg, po measured for 24 hrs by LC-MS/MS analysis; type: ADME, organism-based; set-up: dose 4 mg/kg, route oral; conditions: in vivo
[7] = Half-life in Sprague-Dawley rat at 150 mg/kg, po measured for 24 hrs by LC-MS/MS analysis; type: ADME, organism-based; conditions: in vivo
[8] = Acute toxicity in rat assessed as effect on blood chemistry parameters up to 300 mg/kg measured for 7 days; type: organism-based; conditions: in vivo, 168 h
[9] = Unbound brain-to-plasma concentration ratio in Sprague-Dawley rat by LC-MS/MS analysis; type: ADME, cell-free; conditions: read-out: K(p,uu,brain)
Rattus norvegicus [10] = test: Anti-premature ejaculation activity in anesthetized oxytocin-induced uterine contraction Sprague-Dawley rat model assessed as decrease in intraluminal uterine pressure at 100 mg/kg, po treated for 20 mins and 1 hr later treated with oxytocin and measured for 15 to 30 mins relative to control; type: functional
Cytochrome P450 3A4 [11] = biological target: T1, Cytochrome P450 3A4 (Homo sapiens, UniProt P08684); test: Inhibition of human recombinant CYP3A4 using testosterone as substrate; type: ADME
[12] = Half-life in Beagle dog at 20 mg/kg, po measured for 24 hrs by LC-MS/MS analysis; type: ADME, organism-based, Canis lupus familiaris; conditions: in vivo
[13] = Solubility of compound in FASSIF at pH 6.5; type: physicochemical
[14] = Lipophilicity, log D of compound at pH 7.4; type: physicochemical; conditions: buffer
[15] = Clearance in nude mouse at 1 mg/kg, iv measured for 24 hrs by LC-MS/MS analysis; type: ADME, organism-based; conditions: in vivo
Homo sapiens [16] = species on record: Homo sapiens; test: Selectivity ratio of IC50 for human vasopressin V1B receptor expressed in HEK293 cells to IC50 for human OTR expressed in HEK293 cells; type: cell-based
[17] = Drug concentration in Sprague-Dawley rat brain by LC-MS/MS analysis; type: ADME, tissue-based; conditions: in vivo
[18] = Hepatic clearance in human liver microsomes by LC-MS/MS analysis; type: ADME, Microsome
[19] = AUC (0 to 24 hrs) in Sprague-Dawley rat at 30 mg/kg, po by LC-MS/MS analysis; type: ADME, organism-based; set-up: dose 30 mg/kg, time < 24 hr, route oral; conditions: in vivo
[20] = AUC (0 to 24 hrs) in Beagle dog at 2 mg/kg, po by LC-MS/MS analysis; type: ADME, organism-based, Canis lupus familiaris; set-up: time < 24 hr, dose 2 mg/kg, route oral; conditions: in vivo
[21] = Tmax in Beagle dog at 20 mg/kg, po measured for 24 hrs by LC-MS/MS analysis; type: ADME, organism-based, Canis lupus familiaris; conditions: in vivo
[22] = Cmax in Sprague-Dawley rat at 150 mg/kg, po measured for 24 hrs by LC-MS/MS analysis; type: ADME, organism-based; set-up: dose 150 mg/kg, route oral; conditions: in vivo
[23] = Tmax in Sprague-Dawley rat at 150 mg/kg, po measured for 24 hrs by LC-MS/MS analysis; type: ADME, organism-based; conditions: in vivo
[24] = Plasma concentration in Sprague-Dawley rat by LC-MS/MS analysis; type: ADME, cell-free
[25] = AUC (0 to 24 hrs) in Beagle dog at 20 mg/kg, po by LC-MS/MS analysis; type: ADME, organism-based, Canis lupus familiaris; set-up: time < 24 hr, dose 20 mg/kg, route oral; conditions: in vivo
[26] = Protein binding in human plasma; type: ADME, cell-free; conditions: read-out: PPB (converted)
[27] = AUC (0 to 24 hrs) in nude mouse at 4 mg/kg, po by LC-MS/MS analysis; type: ADME, organism-based; set-up: time < 24 hr, dose 4 mg/kg, route oral; conditions: in vivo
[28] = Hepatic clearance in dog liver microsomes by LC-MS/MS analysis; type: ADME, Canis lupus familiaris, Microsome
[29] = Half-life in Sprague-Dawley rat at 30 mg/kg, po measured for 24 hrs by LC-MS/MS analysis; type: ADME, organism-based; conditions: in vivo
[30] = biological target: Voltage-gated inwardly rectifying potassium channel KCNH2 (Homo sapiens, UniProt Q12809); test: Inhibition of human ERG
[31] = Acute toxicity in rat; conditions: in vivo
[32] = AUC (0 to 24 hrs) in anesthetized oxytocin-induced uterine contraction Sprague-Dawley rat model at 30 mg/kg, po; type: ADME, organism-based; set-up: dose 30 mg/kg, time < 24 hr, route oral; conditions: in vivo
[33] = Acute toxicity in rat assessed as effect on clinical parameters up to 300 mg/kg measured for 7 days; type: organism-based; conditions: in vivo, 168 h
[34] = Unbound fraction in Sprague-Dawley rat brain by LC-MS/MS analysis; type: ADME, tissue-based
[35] = Cmax in Beagle dog at 2 mg/kg, po measured for 24 hrs by LC-MS/MS analysis; type: ADME, organism-based, Canis lupus familiaris; set-up: dose 2 mg/kg, route oral; conditions: in vivo
Rattus norvegicus [36] = test: Anti-premature ejaculation activity in anesthetized oxytocin-induced uterine contraction Sprague-Dawley rat model assessed as decrease in intraluminal uterine pressure at 10 mg/kg, po treated for 20 mins and 1 hr later treated with oxytocin and measured for 15 to 30 mins relative to control; type: functional
Oxytocin receptor = biological target: T2, Oxytocin receptor (Homo sapiens, UniProt P30559); test: Antagonist activity at human OTR expressed in HEK293 cells assessed as decrease in calcium flux measured after 10 mins in […] by Fluo-4 dye based microplate reader based assay; type: functional, cell-based
T2 sequence (P30559 whole entry): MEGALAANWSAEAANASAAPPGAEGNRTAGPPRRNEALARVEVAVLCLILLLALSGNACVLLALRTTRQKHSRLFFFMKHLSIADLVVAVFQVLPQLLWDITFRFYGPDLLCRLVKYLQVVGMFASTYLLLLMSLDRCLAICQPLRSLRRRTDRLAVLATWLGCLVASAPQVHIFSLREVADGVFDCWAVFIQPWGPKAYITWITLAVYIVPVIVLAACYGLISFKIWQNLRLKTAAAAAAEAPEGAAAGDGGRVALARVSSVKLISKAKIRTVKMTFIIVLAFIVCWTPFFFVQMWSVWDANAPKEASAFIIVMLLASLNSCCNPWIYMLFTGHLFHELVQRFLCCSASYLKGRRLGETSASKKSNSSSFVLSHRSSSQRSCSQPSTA

[37] = Hepatic clearance in mouse liver microsomes by LC-MS/MS analysis; type: ADME, Microsome
Cytochrome P450 3A4 [38] = biological target: T1, Cytochrome P450 3A4; test: Inhibition of human recombinant CYP3A4 using midazolam as substrate; type: ADME
[39] = Acute toxicity in rat assessed as effect on body weight at up to 300 mg/kg measured for 7 days; type: organism-based; conditions: in vivo, 168 h
Rattus norvegicus [40] = test: Anti-premature ejaculation activity in anesthetized oxytocin-induced uterine contraction Sprague-Dawley rat model assessed as decrease in intraluminal uterine pressure at 30 mg/kg, po treated for 20 mins and 1 hr later treated with oxytocin and measured for 15 to 30 mins relative to control; type: functional
[41] = Unbound fraction in Sprague-Dawley rat plasma by LC-MS/MS analysis; type: ADME, cell-free

T1 sequence (P08684 whole entry): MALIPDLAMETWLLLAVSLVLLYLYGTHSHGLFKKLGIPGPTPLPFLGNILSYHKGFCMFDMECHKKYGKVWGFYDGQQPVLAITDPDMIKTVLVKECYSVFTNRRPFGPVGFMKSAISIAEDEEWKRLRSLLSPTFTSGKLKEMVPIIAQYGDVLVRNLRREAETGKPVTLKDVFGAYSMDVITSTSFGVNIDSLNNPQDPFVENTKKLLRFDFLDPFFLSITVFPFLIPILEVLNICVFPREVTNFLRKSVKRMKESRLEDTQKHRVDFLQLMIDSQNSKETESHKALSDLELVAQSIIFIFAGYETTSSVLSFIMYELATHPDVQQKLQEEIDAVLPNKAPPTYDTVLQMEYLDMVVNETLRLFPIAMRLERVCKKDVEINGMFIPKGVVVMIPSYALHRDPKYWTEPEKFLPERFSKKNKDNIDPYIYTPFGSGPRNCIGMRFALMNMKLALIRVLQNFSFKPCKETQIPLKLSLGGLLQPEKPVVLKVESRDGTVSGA
Sequence of Cytochrome P450 2C9 (P11712 whole entry): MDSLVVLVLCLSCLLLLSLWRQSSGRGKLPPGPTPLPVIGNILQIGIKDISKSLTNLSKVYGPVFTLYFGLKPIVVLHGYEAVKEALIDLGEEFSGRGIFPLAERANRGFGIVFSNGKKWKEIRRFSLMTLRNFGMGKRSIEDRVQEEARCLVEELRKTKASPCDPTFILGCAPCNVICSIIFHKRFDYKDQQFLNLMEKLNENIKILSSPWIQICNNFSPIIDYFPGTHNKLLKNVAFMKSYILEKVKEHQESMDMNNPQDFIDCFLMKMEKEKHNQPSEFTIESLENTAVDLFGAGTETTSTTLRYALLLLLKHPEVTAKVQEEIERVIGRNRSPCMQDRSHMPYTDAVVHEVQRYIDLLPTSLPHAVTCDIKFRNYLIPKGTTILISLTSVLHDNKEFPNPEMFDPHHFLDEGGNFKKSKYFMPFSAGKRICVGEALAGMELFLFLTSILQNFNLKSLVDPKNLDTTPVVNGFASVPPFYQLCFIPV
Sequence of Voltage-gated inwardly rectifying potassium channel KCNH2 (Q12809 whole entry): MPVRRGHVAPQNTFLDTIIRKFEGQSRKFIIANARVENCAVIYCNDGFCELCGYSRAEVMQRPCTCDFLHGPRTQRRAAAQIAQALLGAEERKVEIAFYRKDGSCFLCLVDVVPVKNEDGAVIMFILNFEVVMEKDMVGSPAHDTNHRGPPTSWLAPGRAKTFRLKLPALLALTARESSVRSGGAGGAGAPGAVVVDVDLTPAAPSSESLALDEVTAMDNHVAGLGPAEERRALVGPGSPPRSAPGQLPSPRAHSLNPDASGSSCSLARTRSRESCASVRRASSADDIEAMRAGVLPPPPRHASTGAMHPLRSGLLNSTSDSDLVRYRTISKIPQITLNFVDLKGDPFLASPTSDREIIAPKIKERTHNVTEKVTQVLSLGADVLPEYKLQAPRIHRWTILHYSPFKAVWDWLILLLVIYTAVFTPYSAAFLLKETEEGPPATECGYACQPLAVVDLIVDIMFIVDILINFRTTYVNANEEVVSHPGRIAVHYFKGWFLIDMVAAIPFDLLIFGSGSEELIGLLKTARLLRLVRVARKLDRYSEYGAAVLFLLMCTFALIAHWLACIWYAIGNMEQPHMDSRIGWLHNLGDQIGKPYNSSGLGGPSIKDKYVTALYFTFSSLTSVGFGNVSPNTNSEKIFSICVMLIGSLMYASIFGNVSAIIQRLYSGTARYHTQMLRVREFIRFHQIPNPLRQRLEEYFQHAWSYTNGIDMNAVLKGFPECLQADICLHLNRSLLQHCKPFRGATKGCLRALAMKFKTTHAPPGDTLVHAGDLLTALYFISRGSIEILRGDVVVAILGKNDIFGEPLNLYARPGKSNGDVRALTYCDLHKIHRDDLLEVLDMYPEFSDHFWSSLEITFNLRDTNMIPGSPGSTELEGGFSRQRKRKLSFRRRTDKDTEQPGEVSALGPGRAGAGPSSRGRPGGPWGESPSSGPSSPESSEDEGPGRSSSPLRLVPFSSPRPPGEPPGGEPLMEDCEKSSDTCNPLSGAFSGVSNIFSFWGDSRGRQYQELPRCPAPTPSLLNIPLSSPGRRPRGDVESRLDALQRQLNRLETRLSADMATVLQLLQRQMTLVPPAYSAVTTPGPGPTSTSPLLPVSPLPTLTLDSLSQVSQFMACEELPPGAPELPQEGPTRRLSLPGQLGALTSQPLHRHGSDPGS

`COCc1nnc(N2C[C@@H]3C[C@]3(c3ccc(F)cc3Cl)C2)n1-c1ccc(OC)nc1` gave a solubility [1] of 420 µM (≈ 180 µg/mL), a half-life [2] of 4.64 h and a Ratio IC50 (Homo sapiens [3]) of 192. It also gave an IC50 (Cytochrome P450 2C9) of over 30 µM, an AUC(0-t) at 24 h [4] of 57200 ng·h/mL and a Tmax [5] of 0.75 h. For the same molecule, the Cmax [6] was 330 ng/mL, the half-life [7] was 3.24 h and the Activity [8] was “Non-Toxic”. It also gave a Kp uu [9] of 0.188, an inhibition in vivo at 100 mg/kg (Rattus norvegicus [10]) of 77.5% and an IC50 (Cytochrome P450 3A4 [11]) of 20 µM. The half-life [12] was 3.38 h, the solubility [13] was 108 µM (≈ 46.2 µg/mL) and the logD [14] was 2.86. For the same molecule, the clearance [15] was 31.3 mL/min/kg, the Ratio IC50 (Homo sapiens [16]) was 2500 and the Ct [17] was 229 ng/g. The CLhep predicted [18] was 14.8 mL/min/kg, the AUC(0-t) at 24 h [19] was 16100 ng·h/mL and the AUC(0-t) at 24 h [20] was 3830 ng·h/mL. The Tmax [21] was 0.88 h, the Cmax [22] was 14000 ng/mL and the Tmax [23] was 0.67 h. It also gave a Cp [24] of 1379 ng/mL, an AUC(0-t) at 24 h [25] of 58700 ng·h/mL and a fraction unbound [26] of 0.0352. For the same molecule, the AUC(0-t) at 24 h [27] was 548 ng·h/mL, the CLhep predicted [28] was 20.3 mL/min/kg and the half-life [29] was 2.23 h. The IC50 [30] was 16 µM, the MTD [31] was over 900 mg/kg and the NOAEL [31] was 300 mg/kg. For the same molecule, the AUC(0-t) at 24 h [32] was 28300 ng·h/mL, the Activity [33] was “Non-Toxic” and the fraction unbound [34] was 0.0166. It also gave a Cmax [35] of 930 ng/mL, an inhibition in vivo at 10 mg/kg (Rattus norvegicus [36]) of 17.6% and an IC50 (Oxytocin receptor) of 0.015 µM. For the same molecule, the CLhep predicted [37] was 77.4 mL/min/kg, the IC50 (Cytochrome P450 3A4 [38]) was over 30 µM and the Activity [39] was “Non-Toxic”. For the same molecule, the inhibition in vivo at 30 mg/kg (Rattus norvegicus [40]) was 65% and the fraction unbound [41] was 0.0146.
